Among the data in patent US20130217664A1, “NOVEL COMPOUNDS USEFUL FOR THE TREATMENT OF DEGENERATIVE AND INFLAMMATORY DISEASES” (priority 2012, published 2013) are IC50 values, retold here.

Some results are limits rather than exact numbers.

Assay type in all cases: biochemical
One assay concerns the target T1, human JAK1 (Homo sapiens, UniProt P23458).
T1 construct: catalytic domain, amino acids 866-1154; catalog number PV4774; purchased Invitrogen PV4774
Briefly: JAK1 inhibition assay (polyGT substrate / Ulight-JAK1 peptide). Conditions: recombinant human JAK1 catalytic domain; polyGT or Ulight-JAK1 peptide assay. The method in brief:
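Signal scaled between vehicle and 10 μM staurosporine. Radiometric polyGT reactions ran 45 min at 30 °C, counted after phosphoric-acid stop. Ulight peptide reactions ran 60 min at room temperature, fluorescence read after adding Eu-PT66 detection mix with EDTA.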

Another assay deals with T2, human JAK3 (Homo sapiens, UniProt P52333).
T2 construct: catalytic domain (amino acids 781-1124; catalog number PV3855); purchased Invitrogen PV3855
T2 sequence (P52333 781-1124): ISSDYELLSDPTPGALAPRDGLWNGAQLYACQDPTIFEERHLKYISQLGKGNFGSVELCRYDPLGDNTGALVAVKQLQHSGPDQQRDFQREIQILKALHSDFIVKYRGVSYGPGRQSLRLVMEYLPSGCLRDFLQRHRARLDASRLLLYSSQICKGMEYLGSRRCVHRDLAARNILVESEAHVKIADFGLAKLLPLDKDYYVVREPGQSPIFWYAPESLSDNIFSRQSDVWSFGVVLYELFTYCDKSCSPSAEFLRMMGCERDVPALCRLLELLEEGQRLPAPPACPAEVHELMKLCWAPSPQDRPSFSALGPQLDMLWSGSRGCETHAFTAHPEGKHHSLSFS
Put plainly: JAK3 inhibition assay. Conditions: recombinant human JAK3 catalytic domain; polyGT substrate. The method in brief:
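Radiometric kinase assay: 0.5 ng JAK3 with 2.5 μg polyGT in Tris pH 7.5/MgCl2 buffer, 1 μM ATP plus 0.25 μCi 33P-γ-ATP, 1% DMSO, 45 min at 30 °C, stopped with phosphoric acid.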

A further assay deals with T3, human TYK2 (Homo sapiens, UniProt P29597).
T3 construct: catalytic domain (amino acids 871-1187; catalog number 08-147); purchased Carna Biosciences 08-147
T3 sequence (P29597 871-1187): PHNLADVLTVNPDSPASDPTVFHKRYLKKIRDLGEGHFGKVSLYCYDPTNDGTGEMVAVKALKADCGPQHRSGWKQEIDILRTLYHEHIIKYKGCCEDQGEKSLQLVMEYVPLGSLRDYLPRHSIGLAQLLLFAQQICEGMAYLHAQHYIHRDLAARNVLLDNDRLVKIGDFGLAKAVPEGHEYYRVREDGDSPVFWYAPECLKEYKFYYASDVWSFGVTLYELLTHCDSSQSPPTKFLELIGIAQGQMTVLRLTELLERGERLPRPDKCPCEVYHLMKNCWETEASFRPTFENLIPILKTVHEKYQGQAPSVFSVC
Briefly: TYK2 inhibition assay. Conditions: recombinant human TYK2 catalytic domain, polyGT substrate. Summed up: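 Radiometric kinase reaction run 90 min at 30 °C, stopped with phosphoric acid, washed and scintillation-counted.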

For another assay, the target named is T4, human JAK2 (Homo sapiens, UniProt O60674).
T4 construct: catalytic domain (amino acids 808-1132; catalog number PV4210); GST; purchased Invitrogen PV4210
T4 sequence (O60674 808-1132): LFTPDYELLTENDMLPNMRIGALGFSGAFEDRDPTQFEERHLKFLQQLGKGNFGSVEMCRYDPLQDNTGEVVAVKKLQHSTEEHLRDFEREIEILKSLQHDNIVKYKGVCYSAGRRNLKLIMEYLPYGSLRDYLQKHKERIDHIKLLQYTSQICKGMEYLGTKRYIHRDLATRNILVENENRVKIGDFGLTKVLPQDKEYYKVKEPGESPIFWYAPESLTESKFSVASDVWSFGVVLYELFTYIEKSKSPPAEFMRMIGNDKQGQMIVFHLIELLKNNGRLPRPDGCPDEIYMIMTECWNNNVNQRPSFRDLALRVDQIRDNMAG
Briefly: JAK2 inhibition assay (polyGT substrate / Ulight-JAK1 peptide). Conditions: recombinant human JAK2 catalytic domain; polyGT or Ulight-JAK1 peptide assay. The method in brief:
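Two JAK2 formats: a ^33P-ATP polyGT assay (1 μM cold ATP, 90 min, 30° C., cpm read-out) and a Ulight-JAK1 peptide assay read by Europium-anti-phosphotyrosine fluorescence after 60 min at room temperature.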

The IC50 is the concentration that gives 50% inhibition.

T1 sequence (P23458 866-1154): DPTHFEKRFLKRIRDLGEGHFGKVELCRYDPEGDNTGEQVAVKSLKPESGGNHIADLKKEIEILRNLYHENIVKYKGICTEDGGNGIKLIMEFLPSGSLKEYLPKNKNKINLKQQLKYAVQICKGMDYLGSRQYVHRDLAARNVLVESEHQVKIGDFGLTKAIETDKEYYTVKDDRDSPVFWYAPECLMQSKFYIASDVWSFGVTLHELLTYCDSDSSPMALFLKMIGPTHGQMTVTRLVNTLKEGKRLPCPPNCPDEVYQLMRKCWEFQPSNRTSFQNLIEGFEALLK

Consider `CCc1cc(C2CN(C(=O)OC)C2)ncc1N(C)c1cc2c(cn1)ncn2C` [Compound 339, 3-{4-Ethyl-5-[methyl-(1-methyl-1H-imidazo[4,5-c]pyridin-6-yl)-amino]-pyridin-2-yl}-azetidine-1-carboxylic acid methyl ester], for which the IC50 on human JAK1 is 0.01 to 100 nM; at human JAK3, > 1000 nM; at human TYK2 it was > 1000 nM; at human JAK2 it was 101 to 500 nM.

For `CCc1cc(C2CN(C(=O)C3CC(F)(F)C3)C2)ncc1N(C)c1cc2c(cn1)ncn2C` [Compound 340], the IC50 was 101 to 500 nM on human JAK1, > 1000 nM on human JAK3, > 1000 nM at human TYK2 and > 1000 nM at human JAK2.

In the case of `CN(c1ccc(/C=C/C#N)cc1)c1cc2c(cn1)ncn2C` [Compound 345, (E)-3-{4-[Methyl-(1-methyl-1H-imidazo[4,5-c]pyridin-6-yl)-amino]-phenyl}-acrylonitrile], the concentration for half-maximal inhibition (IC50) on human JAK1 is 101 to 500 nM; on human JAK3, > 1000 nM; at human TYK2 it was > 1000 nM; at human JAK2, 501 to 1000 nM.

As for `CCc1cc(C2CN(C(=O)C3(C#N)CC3)C2)ccc1N(C)c1cc2c(cn1)ncn2C` [Compound 348, 1-(3-{3-Ethyl-4-[methyl-(1-methyl-1H-imidazo[4,5-c]pyridin-6-yl)-amino]-phenyl}-azetidine-1-carbonyl)-cyclopropanecarbonitrile], the IC50 at human JAK1 is 101 to 500 nM; at human JAK3 it was > 1000 nM; at human TYK2 it was > 1000 nM; at human JAK2, 501 to 1000 nM.

On to `CN(c1cc2c(cn1)ncn2C)c1ccc(CN(CC#N)S(C)(=O)=O)cc1F` [Compound 355], for which the IC50 on human JAK1 is 0.01 to 100 nM; at human JAK3, 101 to 500 nM; at human TYK2, 101 to 500 nM; on human JAK2 it was 0.01 to 100 nM.

`COCN(Cc1ccc(N(C)c2cc3c(cn2)ncn3C)c(F)c1)S(C)(=O)=O` [Compound 359, N-{3-Fluoro-4-[methyl-(1-methyl-1H-imidazo[4,5-c]pyridin-6-yl)-amino]-benzyl}-N-methoxymethyl-methanesulfonamide]: the IC50 at human JAK1 is 101 to 500 nM; at human JAK3 it was > 1000 nM; on human TYK2, > 1000 nM; on human JAK2 it was 101 to 500 nM.

For `CN(c1cc2c(cn1)ncn2C)c1ccc(CN(CC2CC2)S(C)(=O)=O)cc1F` [Compound 360], the IC50 at human JAK1 was 101 to 500 nM; at human JAK3, > 1000 nM; at human TYK2, > 1000 nM; on human JAK2 it was 101 to 500 nM.

In the case of `CN(c1cc2c(cn1)ncn2C)c1ccc(C2CN(C(=O)N3CCC3)C2)cc1OC(F)F` [Compound 366, Azetidin-1-yl-(3-{3-difluoromethoxy-4-[methyl-(1-methyl-1H-imidazo[4,5-c]pyridin-6-yl)-amino]-phenyl}-azetidin-1-yl)-methanone], the 50% inhibitory concentration (IC50) was 501 to 1000 nM at human JAK1, > 1000 nM at human JAK3, > 1000 nM at human TYK2 and > 1000 nM on human JAK2.

Consider `CN(c1cc2c(cn1)ncn2C)c1ccc(C2CN(C(=O)N3CCCCC3)C2)cc1OC(F)F` [Compound 367, (3-{3-Difluoromethoxy-4-[methyl-(1-methyl-1H-imidazo[4,5-c]pyridin-6-yl)-amino]-phenyl}-azetidin-1-yl)-piperidin-1-yl-methanone], for which the IC50 was 501 to 1000 nM on human JAK1, > 1000 nM at human JAK3, > 1000 nM at human TYK2 and > 1000 nM on human JAK2.

In the case of `CN(c1cc2c(cn1)ncn2C)c1ccc(C2CN(C(=O)N3CCOCC3)C2)cc1OC(F)F` [Compound 368], the half-maximal inhibitory concentration (IC50) at human JAK1 is 501 to 1000 nM; at human JAK3 it was > 1000 nM; on human TYK2, > 1000 nM; at human JAK2 it was > 1000 nM.

Turning to `CN(c1cc2c(cn1)ncn2C)c1ccc(C2CN(S(=O)(=O)N3CCOCC3)C2)cc1OC(F)F` [Compound 371, {2-Difluoromethoxy-4-[1-(morpholine-4-sulfonyl)-azetidin-3-yl]-phenyl}-methyl-(1-methyl-1H-imidazo[4,5-c]pyridin-6-yl)-amine], the IC50 is 0.01 to 100 nM at human JAK1, > 1000 nM at human JAK3, > 1000 nM at human TYK2 and 101 to 500 nM on human JAK2.

As for `CN(c1cc2c(cn1)ncn2C)c1ccc(C2CN(CC(N)=O)C2)cc1OC(F)F` [Compound 374, 2-(3-{3-Difluoromethoxy-4-[methyl-(1-methyl-1H-imidazo[4,5-c]pyridin-6-yl)-amino]-phenyl}-azetidin-1-yl)-acetamide], the IC50 at human JAK1 was 101 to 500 nM; on human JAK3, > 1000 nM; at human TYK2, > 1000 nM; at human JAK2, 101 to 500 nM.

With `CCc1cc(CN2CC(C)(C)C2)ccc1N(C)c1cc2c(cn1)ncn2C` [Compound 382, [4-(3,3-Dimethyl-azetidin-1-ylmethyl)-2-ethyl-phenyl]-methyl-(1-methyl-1H-imidazo[4,5-c]pyridin-6-yl)-amine], the half-maximal inhibitory concentration (IC50) at human JAK1 is 101 to 500 nM; at human JAK3 it was > 1000 nM; on human TYK2, > 1000 nM; at human JAK2 it was > 1000 nM.

With `CCc1cc(CC(=O)N2CC(C)(C)C2)ccc1N(C)c1cc2c(cn1)ncn2C` [Compound 386, 1-(3,3-Dimethyl-azetidin-1-yl)-2-{3-ethyl-4-[methyl-(1-methyl-1H-imidazo[4,5-c]pyridin-6-yl)-amino]-phenyl}-ethanone], the half-inhibitory concentration (IC50) on human JAK1 is 101 to 500 nM; at human JAK3, > 1000 nM; on human TYK2, > 1000 nM; on human JAK2, > 1000 nM.

`CCc1cc(N2CC(C(=O)OC)C2)ncc1N(C)c1cc2c(cn1)ncn2C` [Compound 399, 1-{4-Ethyl-5-[methyl-(1-methyl-1H-imidazo[4,5-c]pyridin-6-yl)-amino]-pyridin-2-yl}-azetidine-3-carboxylic acid methyl ester]: the half-maximal inhibitory concentration (IC50) was 0.01 to 100 nM at human JAK1, > 1000 nM on human JAK3, > 1000 nM on human TYK2 and 101 to 500 nM on human JAK2.

For the compound `CCc1cc(N2CC(C(=O)NCC#N)C2)ncc1N(C)c1cc2c(cn1)ncn2C` [Compound 401, 1-{4-Ethyl-5-[methyl-(1-methyl-1H-imidazo[4,5-c]pyridin-6-yl)-amino]-pyridin-2-yl}-azetidine-3-carboxylic acid cyanomethyl-amide], the 50% inhibitory concentration (IC50) on human JAK1 is 101 to 500 nM; on human JAK3, > 1000 nM; on human TYK2, > 1000 nM; at human JAK2, 501 to 1000 nM.

In the case of `CN(c1cc2c(cn1)ncn2C)c1c(F)cc(C#N)cc1F` [Compound 403, 3,5-Difluoro-4-[methyl-(1-methyl-1H-imidazo[4,5-c]pyridin-6-yl)-amino]-benzonitrile], the half-inhibitory concentration (IC50) at human JAK1 is 501 to 1000 nM; on human JAK3, > 1000 nM; at human TYK2, > 1000 nM; on human JAK2 it was > 1000 nM.

As to `CN(c1cc2c(cn1)ncn2C)c1c(F)cc(C2CN(C(=O)OC(C)(C)C)C2)cc1F` [Compound 408, 3-{3,5-Difluoro-4-[methyl-(1-methyl-1H-imidazo[4,5-c]pyridin-6-yl)-amino]-phenyl)-azetidine-1-carboxylic acid tert-butyl ester], the IC50 at human JAK1, at human JAK3, on human TYK2 and at human JAK2 was > 1000 nM throughout.

`CCNC(=O)C1CN(c2cc(CC)c(N(C)c3cc4c(cn3)ncn4C)cn2)C1` [Compound 412, 1-{4-Ethyl-5-[methyl-(1-methyl-1H-imidazo[4,5-c]pyridin-6-yl)-amino]-pyridin-2-yl}-azetidine-3-carboxylic acid ethylamide]: the 50% inhibitory concentration (IC50) on human JAK1 is 501 to 1000 nM; on human JAK3, > 1000 nM; at human TYK2 it was > 1000 nM; at human JAK2 it was 501 to 1000 nM.

Take `CCc1cc(N2CCCC(C#N)C2)ncc1N(C)c1cc2c(cn1)ncn2C` (stereo not drawn) [Compound 416, 4′-Ethyl-5′-[methyl-(1-methyl-1H-imidazo[4,5-c]pyridin-6-yl)-amino]-3,4,5,6-tetrahydro-2H-[1,2′]bipyridinyl-3-carbonitrile]: the IC50 was in the range of 0.01 to 100 nM on human JAK1, 0.01 to 100 nM at human JAK3, 101 to 500 nM on human TYK2 and 0.01 to 100 nM at human JAK2.

Take `CCc1cc(N2CC[C@H](C)C2)ncc1N(C)c1cc2c(cn1)ncn2C` [Compound 417, [4-Ethyl-6-((S)-3-methyl-pyrrolidin-1-yl)-pyridin-3-yl]-methyl-(1-methyl-1H-imidazo[4,5-c]pyridin-6-yl)-amine]: the IC50 on human JAK1 lay within 0.01 to 100 nM; on human JAK3, 101 to 500 nM; at human TYK2 it was 0.01 to 100 nM; on human JAK2, 0.01 to 100 nM.
